# Measurements from patent US9403801B2 (Calitor Sciences, LLC, priority 2014, dated 2016).
# What was measured:
# JAK3 (h) = JAK3 (h) (Homo sapiens (Human), UniProt P52333); assay: JAK3 kinase assay (33P-ATP filter binding, Millipore); type: biochemical
# Description: (§1) Kinase assays can be performed by measurement of incorporation of γ-^33P ATP into immobilized myelin basic protein (MBP). High binding white 384 well plates (Greiner) are coated with MBP (Sigma #M−1891) by incubation of 60 μL/well of 20 μg/mL MBP in Tris-buffered saline (TBS; 50 mM Tris pH 8.0, 138 mM NaCl, 2.7 mM KCl) for 24 h at 4° C. Plates are washed 3× with 100 μL TBS. Kinase reactions are carried out in a total volume of 34 μL in kinase buffer (5 mM Hepes pH 7.6, 15 mM NaCl, 0.01% bovine gamma globulin (Sigma #I-5506), 10 mM MgCl2, 1 mM DTT, 0.02% TritonX-100). Compound dilutions are performed in DMSO and added to assay wells to a final DMSO concentration of 1%. Each data point is measured in duplicate, and at least two duplicate assays are performed for each individual compound determination. Enzyme is added to final concentrations of 10 nM or 20 nM, for example. A mixture of unlabeled ATP and γ-^33P ATP is added to start the reaction (2×10^6 cpm of γ-^33P ATP per well (3000 Ci/mmole) and 10 μM unlabeled ATP, typically. The reactions are carried out for 1 h at room temperature with shaking. Plates are washed 7× with TBS, followed by the addition of 50 μL/well scintillation fluid (Wallac). Plates are read using a Wallac Trilux counter. This is only one format of such assays; various other formats are possible, as known to one skilled in the art.
# (§2) The above assay procedure can be used to determine the IC50 for inhibition and/or the inhibition constant, Ki. The IC50 is defined as the concentration of compound required to reduce the enzyme activity by 50% under the condition of the assay. The IC50 value is estimated by preparing a 10 point curve using a 1/2 log dilution series (for example, a typical curve may be prepared using the following compound concentrations: 3 μM, 1 μM, 0.3 μM, 0.1 μM, 0.03 μM, 0.01 μM, 0.003 μM, 0.001 μM, 0.0003 μM and 0 μM).
# (§3) The kinase assays described herein were performed at Millipore UK Ltd, Dundee Technology Park, Dundee DD2 1SW, UK.
# [1] = Pharmacokinetics after intravenous and oral administration in rats; type: in vivo; settings: for Clearance (CL) after iv dosing / AUC(0-t) / half-life / Vd: dose 1 mg/kg (Ex. 27: 0.72 mg/kg), iv dosing; for F: oral bioavailability; for AUC(0-t) / half-life / Vd: rat, plasma; for Vd: read-out: Vss
# Procedure, shortened: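 Rats were dosed 1 or 2 mg/kg IV or 5 or 10 mg/kg orally, as water solution, HPMC/Tween 80, DMSO/saline, MC suspension or capsule. Plasma was sampled from 0.083 or 0.25 h up to 24 h and quantified by LC/MS/MS in MRM mode with ESI.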
# JAK1 (h) = JAK1 (h) (Homo sapiens (Human), UniProt P23458); assay: JAK1 kinase assay (33P-ATP filter binding, Millipore); type: biochemical
# Sequence of JAK1 (h) (P23458 whole entry): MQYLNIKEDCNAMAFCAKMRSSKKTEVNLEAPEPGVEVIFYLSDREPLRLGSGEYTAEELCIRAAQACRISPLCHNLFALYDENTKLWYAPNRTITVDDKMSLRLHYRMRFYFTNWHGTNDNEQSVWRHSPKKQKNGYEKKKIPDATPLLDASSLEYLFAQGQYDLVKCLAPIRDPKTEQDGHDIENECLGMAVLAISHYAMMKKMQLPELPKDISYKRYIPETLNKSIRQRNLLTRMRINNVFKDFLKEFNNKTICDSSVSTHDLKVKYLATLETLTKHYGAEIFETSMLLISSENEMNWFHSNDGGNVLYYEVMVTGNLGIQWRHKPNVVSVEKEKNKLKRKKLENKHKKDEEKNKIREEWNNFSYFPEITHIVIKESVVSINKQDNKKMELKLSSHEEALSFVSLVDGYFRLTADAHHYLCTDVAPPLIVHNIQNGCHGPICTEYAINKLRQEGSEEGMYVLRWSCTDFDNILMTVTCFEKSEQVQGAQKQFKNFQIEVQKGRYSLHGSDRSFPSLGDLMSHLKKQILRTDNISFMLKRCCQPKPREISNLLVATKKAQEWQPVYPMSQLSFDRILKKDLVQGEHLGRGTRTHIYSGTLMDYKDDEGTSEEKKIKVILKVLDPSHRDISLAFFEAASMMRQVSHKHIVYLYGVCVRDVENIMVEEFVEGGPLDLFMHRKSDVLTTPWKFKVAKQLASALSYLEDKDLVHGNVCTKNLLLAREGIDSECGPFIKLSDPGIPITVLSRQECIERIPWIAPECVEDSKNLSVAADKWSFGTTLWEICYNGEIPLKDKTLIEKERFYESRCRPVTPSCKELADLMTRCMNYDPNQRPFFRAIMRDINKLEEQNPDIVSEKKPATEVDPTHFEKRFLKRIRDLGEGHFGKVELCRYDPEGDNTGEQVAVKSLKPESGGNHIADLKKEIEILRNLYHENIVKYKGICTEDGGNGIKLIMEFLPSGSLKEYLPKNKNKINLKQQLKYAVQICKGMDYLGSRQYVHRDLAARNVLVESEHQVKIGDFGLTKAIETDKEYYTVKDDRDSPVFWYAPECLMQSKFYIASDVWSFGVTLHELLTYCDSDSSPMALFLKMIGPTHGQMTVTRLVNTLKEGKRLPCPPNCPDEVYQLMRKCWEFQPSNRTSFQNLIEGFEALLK
# Procedure, shortened: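 Radiometric assay of γ-33P-ATP incorporation into plate-immobilised MBP; kinase buffer pH 7.6 with 10 mM MgCl2, 10 μM unlabelled ATP typical, enzyme 10 or 20 nM final, 1% DMSO. Reactions ran 1 h at room temperature before scintillation counting. IC50 from 10-point half-log dilution curve, duplicates.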
# [2] = Compound stability in rat liver microsomes; type: in vitro ADME
# Procedure, shortened: (§4)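 Each compound is tested in duplicate at 5 μM with 0.5 mg/mL microsomal protein plus 1.0 mM NADPH at 37° C, pH 7.4. Depletion over 60 min is followed by LC/MS/MS relative to time zero. CLint is derived by extrapolation.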
# TYK2 (h) = TYK2 (h) (Homo sapiens (Human), UniProt P29597); assay: TYK2 kinase assay (33P-ATP filter binding, Millipore); type: biochemical
# Sequence of TYK2 (h) (P29597 whole entry): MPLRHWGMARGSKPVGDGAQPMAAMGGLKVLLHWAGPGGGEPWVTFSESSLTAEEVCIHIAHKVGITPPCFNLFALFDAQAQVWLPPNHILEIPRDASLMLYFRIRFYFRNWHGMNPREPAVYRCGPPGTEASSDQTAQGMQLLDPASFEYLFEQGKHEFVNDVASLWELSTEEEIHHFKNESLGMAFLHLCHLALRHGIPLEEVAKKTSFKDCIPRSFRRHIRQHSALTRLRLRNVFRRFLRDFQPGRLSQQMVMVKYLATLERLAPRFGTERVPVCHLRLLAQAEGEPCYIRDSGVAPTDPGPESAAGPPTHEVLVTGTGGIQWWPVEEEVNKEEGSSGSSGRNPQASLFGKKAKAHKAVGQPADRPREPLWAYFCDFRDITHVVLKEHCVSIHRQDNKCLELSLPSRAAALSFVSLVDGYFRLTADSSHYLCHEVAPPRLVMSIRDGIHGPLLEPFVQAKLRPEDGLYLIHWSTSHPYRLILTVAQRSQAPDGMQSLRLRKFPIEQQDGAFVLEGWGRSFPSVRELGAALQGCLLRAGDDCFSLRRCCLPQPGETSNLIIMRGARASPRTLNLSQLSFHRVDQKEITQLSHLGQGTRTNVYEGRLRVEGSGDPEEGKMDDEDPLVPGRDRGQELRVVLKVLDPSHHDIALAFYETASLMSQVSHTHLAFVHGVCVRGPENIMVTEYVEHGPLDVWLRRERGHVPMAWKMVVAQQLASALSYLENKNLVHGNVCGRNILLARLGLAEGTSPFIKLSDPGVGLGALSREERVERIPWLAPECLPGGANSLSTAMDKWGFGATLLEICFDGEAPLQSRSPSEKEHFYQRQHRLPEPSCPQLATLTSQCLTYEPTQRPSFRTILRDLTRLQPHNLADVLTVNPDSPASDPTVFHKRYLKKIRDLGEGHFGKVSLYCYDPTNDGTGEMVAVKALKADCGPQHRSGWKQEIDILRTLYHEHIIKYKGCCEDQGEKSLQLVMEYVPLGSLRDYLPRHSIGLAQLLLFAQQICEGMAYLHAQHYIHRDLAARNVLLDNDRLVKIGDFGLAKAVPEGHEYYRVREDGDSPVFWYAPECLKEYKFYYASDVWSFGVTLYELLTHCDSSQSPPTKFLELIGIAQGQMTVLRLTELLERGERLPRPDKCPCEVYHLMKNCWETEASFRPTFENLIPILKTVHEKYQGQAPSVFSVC
# Description: as §1, §2, §3
# JAK2 (h) = JAK2 (h) (Homo sapiens (Human), UniProt O60674); assay: JAK2 kinase assay (33P-ATP filter binding, Millipore); type: biochemical
# Sequence of JAK2 (h) (O60674 whole entry): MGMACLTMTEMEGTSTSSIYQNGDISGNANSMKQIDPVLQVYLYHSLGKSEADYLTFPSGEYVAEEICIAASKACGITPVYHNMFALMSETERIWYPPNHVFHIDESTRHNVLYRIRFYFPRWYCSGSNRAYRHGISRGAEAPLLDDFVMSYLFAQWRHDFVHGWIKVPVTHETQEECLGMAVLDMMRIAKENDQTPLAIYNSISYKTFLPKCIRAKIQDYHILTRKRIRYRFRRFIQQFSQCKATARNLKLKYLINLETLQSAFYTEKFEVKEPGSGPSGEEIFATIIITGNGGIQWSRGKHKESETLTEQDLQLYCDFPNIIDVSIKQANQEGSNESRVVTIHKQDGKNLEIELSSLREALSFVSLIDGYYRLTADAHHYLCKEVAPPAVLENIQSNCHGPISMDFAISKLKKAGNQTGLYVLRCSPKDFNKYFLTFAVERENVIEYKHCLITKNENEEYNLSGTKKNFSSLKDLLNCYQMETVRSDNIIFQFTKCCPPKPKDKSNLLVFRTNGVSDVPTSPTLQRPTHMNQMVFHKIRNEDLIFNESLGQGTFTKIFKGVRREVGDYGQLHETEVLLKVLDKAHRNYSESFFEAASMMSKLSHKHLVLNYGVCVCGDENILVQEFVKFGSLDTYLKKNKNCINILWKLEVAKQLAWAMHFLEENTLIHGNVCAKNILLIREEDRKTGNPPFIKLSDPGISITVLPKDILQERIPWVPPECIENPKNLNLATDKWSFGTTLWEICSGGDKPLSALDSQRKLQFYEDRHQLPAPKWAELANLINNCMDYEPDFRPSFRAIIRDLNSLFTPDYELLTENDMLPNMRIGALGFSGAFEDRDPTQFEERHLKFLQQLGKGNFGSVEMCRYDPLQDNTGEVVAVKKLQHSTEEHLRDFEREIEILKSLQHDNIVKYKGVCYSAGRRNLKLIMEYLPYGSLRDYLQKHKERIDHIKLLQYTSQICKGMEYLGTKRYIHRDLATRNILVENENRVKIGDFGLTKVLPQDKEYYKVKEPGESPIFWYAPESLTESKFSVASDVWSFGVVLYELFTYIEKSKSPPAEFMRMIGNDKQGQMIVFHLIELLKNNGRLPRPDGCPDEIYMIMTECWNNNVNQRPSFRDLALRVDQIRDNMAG
# Description: as §1, §2, §3
# [3] = Compound stability in human liver microsomes; type: in vitro ADME; settings: for half-life at 5 μM: compound 5 μM, NADPH 1.0 mM, 37° C.; for CLint scaled at 5 μM: in vivo CLint extrapolated
# Procedure, shortened: as §4
# FLT3 (h) = FLT3 (h) (Homo sapiens (Human), UniProt P36888); assay: FLT3 kinase assay (33P-ATP filter binding, Millipore); type: biochemical
# Description: as §1, with “art. […]” for “art.”
# Aurora-A (h) = Aurora-A (h) (Homo sapiens (Human), UniProt O14965); assay: Aurora-A kinase assay (33P-ATP filter binding, Millipore); type: biochemical
# Sequence of Aurora-A (h) (O14965 whole entry): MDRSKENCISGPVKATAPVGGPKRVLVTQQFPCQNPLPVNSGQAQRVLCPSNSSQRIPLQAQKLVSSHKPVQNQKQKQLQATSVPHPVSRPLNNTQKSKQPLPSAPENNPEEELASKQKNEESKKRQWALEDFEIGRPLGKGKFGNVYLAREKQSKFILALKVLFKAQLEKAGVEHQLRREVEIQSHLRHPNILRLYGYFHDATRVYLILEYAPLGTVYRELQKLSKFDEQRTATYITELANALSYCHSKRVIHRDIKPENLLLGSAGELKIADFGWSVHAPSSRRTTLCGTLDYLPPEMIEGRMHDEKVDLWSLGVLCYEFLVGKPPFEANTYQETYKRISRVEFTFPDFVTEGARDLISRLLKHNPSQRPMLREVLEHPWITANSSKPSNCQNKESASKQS
# Description: as §1, with “art. […]” for “art.”
# [4] = pH 7.4, Rat liver microsomes 0.5 mg protein/mL, compound 5 μM, NADPH 1.0 mM, 37° C.
# [5] = pH 7.4, Rat liver microsomes, in vivo CLint extrapolated
# [6] = pH 7.4, Human liver microsomes 0.5 mg protein/mL
# [7] = human, liver microsomes, pH 7.4, Human liver microsomes 0.5 mg protein/mL
# [8] = human, liver microsomes, pH 7.4, Human liver microsomes
# [9] = rat, liver microsomes, pH 7.4, Rat liver microsomes 0.5 mg protein/mL, compound 5 μM, NADPH 1.0 mM, 37° C.
# [10] = rat, liver microsomes, pH 7.4, Rat liver microsomes, in vivo CLint extrapolated
# Sequence of JAK3 (h) (P52333 whole entry): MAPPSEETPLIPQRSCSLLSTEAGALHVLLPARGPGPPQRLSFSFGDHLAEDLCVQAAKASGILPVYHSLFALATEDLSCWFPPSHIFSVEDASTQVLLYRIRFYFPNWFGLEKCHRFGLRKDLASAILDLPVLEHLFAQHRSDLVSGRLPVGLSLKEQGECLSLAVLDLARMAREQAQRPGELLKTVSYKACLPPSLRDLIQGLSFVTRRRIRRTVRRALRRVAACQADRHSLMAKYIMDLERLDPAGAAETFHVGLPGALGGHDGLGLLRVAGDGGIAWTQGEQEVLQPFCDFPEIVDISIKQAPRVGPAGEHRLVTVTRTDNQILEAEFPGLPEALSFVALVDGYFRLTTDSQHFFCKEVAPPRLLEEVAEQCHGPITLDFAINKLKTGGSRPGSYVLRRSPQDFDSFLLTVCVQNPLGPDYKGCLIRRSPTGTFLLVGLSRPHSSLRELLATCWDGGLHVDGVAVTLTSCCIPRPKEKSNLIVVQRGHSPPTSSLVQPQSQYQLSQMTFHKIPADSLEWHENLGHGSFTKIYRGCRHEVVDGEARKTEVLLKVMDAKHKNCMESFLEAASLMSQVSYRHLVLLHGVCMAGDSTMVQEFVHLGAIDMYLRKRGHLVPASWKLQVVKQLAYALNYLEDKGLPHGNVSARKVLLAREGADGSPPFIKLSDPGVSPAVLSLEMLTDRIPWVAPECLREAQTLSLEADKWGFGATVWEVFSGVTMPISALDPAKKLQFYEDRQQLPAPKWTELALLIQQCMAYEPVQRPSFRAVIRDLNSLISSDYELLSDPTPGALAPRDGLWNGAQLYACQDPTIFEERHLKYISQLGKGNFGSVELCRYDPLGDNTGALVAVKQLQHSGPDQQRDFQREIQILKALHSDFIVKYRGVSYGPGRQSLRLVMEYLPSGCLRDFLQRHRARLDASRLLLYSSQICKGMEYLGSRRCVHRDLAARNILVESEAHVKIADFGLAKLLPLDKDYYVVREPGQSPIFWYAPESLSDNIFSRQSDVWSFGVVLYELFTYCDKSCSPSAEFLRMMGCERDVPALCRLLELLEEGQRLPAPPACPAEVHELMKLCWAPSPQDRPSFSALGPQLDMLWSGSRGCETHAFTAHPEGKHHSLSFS
"half-life at 5 μM [2, 4] [min]","CLint scaled at 5 μM [2, 5] [mL/min/kg]","half-life at 5 μM [3, 6] [min]","CLint scaled at 5 μM ([3]; pH 7.4, Human liver microsomes) [mL/min/kg]",Structure (SMILES),IC50 (JAK3 (h)) [nM],Clearance (CL) after iv dosing [1] [mL/min/kg],F [1] [%],AUC(0-t) [1] [ng·h/mL],half-life [1] [min],Vd [1] [L/kg],IC50 (JAK1 (h)) [nM],IC50 (TYK2 (h)) [nM],IC50 (JAK2 (h)) [nM],"half-life at 5 μM [3, 7] [min]","CLint scaled at 5 μM [3, 8] [mL/min/kg]",IC50 (FLT3 (h)) [nM],IC50 (Aurora-A (h)) [nM],"half-life at 5 μM [2, 9] [min]","CLint scaled at 5 μM [2, 10] [mL/min/kg]",other results
12,208,187,9.3,"Cn1cc(Nc2ncc(Cl)c(NC3CC4CN(C(=O)CC#N)CC4C3)n2)cn1 (centres unmarked) [Ex. 12, 3-(5-((5-chloro-2-((1-methyl-1H-pyrazol-4-yl)amino)pyrimidin-4-yl)amino)hexahydrocyclopenta[c]pyrrol-2(1H)-yl)-3-oxopropanenitrile]",359,121,39.2,143,14.4,1.75,1,7,18,,,,,,,
,,,,"Cn1cc(Nc2ncc(Cl)c(NC3CCC4(CC3)CCN(C(=O)CC#N)C4)n2)cn1 (single isomer, unassigned) [Ex. 14A, 3-(8-((5-chloro-2-((1-methyl-1H-pyrazol-4-yl)amino)pyrimidin-4-yl)amino)-2-azaspiro[4.5]decan-2-yl)-3-oxopropanenitrile]",39,,,,,,0.8,1,5,203,8.55,,,,,"T1/2 ([2]; Rat liver microsomes 0.5 mg protein/mL, compound 5 μM, NADPH 1.0 mM, 37° C.): 10.60 min; CLint ([2]; Rat liver microsomes, in vivo CLint extrapolated): 234.31 mL/min/kg"
13.2,188,67.2,25.9,"Cn1cc(Nc2ncc(Cl)c(NC3CC4CN(S(C)(=O)=O)CC4C3)n2)cn1 (centres unmarked) [Ex. 31, 5-chloro-N^2-(1-methyl-1H-pyrazol-4-yl)-N^4-(2-(methylsulfonyl)octahydrocyclopenta[c]pyrrol-5-yl)pyrimidine-2,4-diamine]",178,61.2,25.7,272,39.6,2.06,1,18,12,,,134,4,,,
,,,,"CC(=O)N1CCC2(CCC(Nc3nc(Nc4cnn(C)c4)ncc3Cl)CC2)CC1 [Ex. 28, 1-(9-((5-chloro-2-((1-methyl-1H-pyrazol-4-yl)amino)pyrimidin-4-yl)amino)-3-azaspiro[5.5]undecan-3-yl)ethanone]",47,71,63.6,251,39,3.06,0.9,4,4,268,6.49,16,22,73.6,33.8,
,,,,"Cn1cc(Nc2ncc(Cl)c(NC3CCC4(CC3)CCN(c3ccc(C#N)cn3)CC4)n2)cn1 [Ex. 27, 6-(9-((5-chloro-2-((1-methyl-1H-pyrazol-4-yl)amino)pyrimidin-4-yl)amino)-3-azaspiro[5.5]undecan-3-yl)nicotinonitrile]",,27.8,15.0,452,46.2,1.74,4,,23,21.8,79.7,,,9.2,270,
